Reference: patent US6414222B1, “Gene combinations for herbicide tolerance in corn” (Regents of the University of Minnesota, priority 1993, dated 2002)

Experiments:
[1] = system: fatty acid synthesis in corn seedling chloroplasts; assay: [14C]acetate and [14C]pyruvate incorporation into fatty acids in isolated chloroplasts; format: biochemical, Corn (Z. mays L.); details: 10 minute assay time, mean of two experiments ± standard error
Description: Corn (Z. mays L., ‘B37×Oh43’) seeds were germinated in darkness for 96 hours in vermiculite in an incubation chamber maintained at 30° C., 80% RH. Seedlings were then transferred to a growth chamber with a 16 hour light (25° C.) and an 8 hour dark (20° C.) cycle, 90% relative humidity (RH). After greening 48 hours, seedlings were returned to the dark incubation chamber for 12 hours to deplete chloroplast starch reserves. Seedlings were harvested 6 days after planting. Pea (P. sativum L., ‘PI 9901-C’) seedlings were grown in vermiculite in a growth chamber with a 16 hour light (21° C.) and 8 hour dark (16° C.) cycle, 80% RH. Peas were harvested 10 to 13 days after planting. Black Mexican Sweet (BMS) corn suspension cultures were maintained in a supplemented Murashige-Skoog (MS) medium (C. E. Green, Hort. Sci., 12, 7-10 (1977)), and subcultured weekly by 20-fold dilution of the suspension culture into fresh medium.
Chloroplasts from corn and pea seedlings were isolated at 4° C. (K. Cline et al., J. Biol. Chem., 260, 3691-3696 (1985)). Seedlings (50 g of shoots) were homogenized in 200 ml buffer A (50 mM HEPES-NaOH pH 7.5, 330 mM sorbitol, 0.1% w/v BSA, 1 mM MgCl2, 1 mM MnCl2, 2 mM EDTA, 5 mM isoascorbate, 1.3 mM glutathione) in an omnimixer (five, 3-second bursts at full speed). The homogenate was filtered through six layers of cheesecloth and two layers of miracloth, and then centrifuged at 3000 g for 3 minutes with hand-braking. The pellet was gently resuspended in buffer A and layered onto a preformed linear Percoll gradient (50 mM HEPES-NaOH pH 7.5, 330 mM sorbitol, 1.9 mM isoascorbate, 1.08 mM glutathione, 0.1% w/v BSA, 50% Percoll) which was centrifuged at 3000 g for 20 minutes in a Sorvall HB-4 rotor. The lower band in the gradient, containing intact chloroplasts, was washed twice by gently resuspending it in 20 ml of buffer B (50 mM HEPES-NaOH, pH 7.5, and 330 mM sorbitol) followed by repelleting (3000 g, 5 minutes). The final pellet, consisting of intact chloroplasts, was resuspended in 2 to 3 ml of buffer B and stored on ice in the dark until use.
[^14C]acetate and [^14C]pyruvate were used as precursors to measure fatty acid biosynthesis in isolated chloroplasts (B. Liedvogel et al., Planta, 169, 481-489 (1986)). [^14C]acetate incorporation was assayed in a 0.5 ml-volume containing: 50 mM HEPES-NaOH (pH 7.5), 330 mM sorbitol, 5 mM KH2PO4, 10 mM NaHCO3, 1 mM MgCl2, 1 mM ATP, 0.1 mM CoA, 0.15 mM [^14C]acetate (3.33 mCi/mmol), and chloroplasts (20 to 50 μg chlorophyll). [^14C]pyruvate incorporation into fatty acids was assayed in the same medium except that it included 2 mM TPP, 1 mM NAD^+, 0.15 mM [^14C]-pyruvate (1.33 mCi/mmol), but no acetate. […] Aliquots (50 μl) were counted for radioactivity by liquid scintillation spectrometry.

[2] = system: cell line 2167-9/2160-154 S-1; assay: Callus herbicide tolerance, line S-1; format: cell-based, maize; details: cell line S-1
Description: (§1) Tolerant cell line 2167-9/2160-154 S-2 (“S-2”) was characterized to evaluate: (1) the magnitude of sethoxydim tolerance; (2) cross-tolerance of haloxyfop; and (3) the biochemical basis for the tolerance. Callus tissue from S-2 that had been maintained on 10 μM sethoxydim was transferred to media containing up to 100 μM sethoxydim. One-half gram of S-2 tissue was plated on a 7 cm filter paper as a lawn overlaying 50 ml agar-solidified culture medium containing 0, 0.5, 1.0, 2.0, 5.0, 10.0, 50.0 and 100 μM sethoxydim, and cultured for two weeks. Control cell line 2167-9/2160-154 was plated similarly on medium containing the same levels of sethoxydim. The control cell line growth after two weeks was inhibited 50% at 1 μM sethoxydim.
(§2) The tolerant callus cultures were characterized to determine the magnitude of sethoxydim and haloxyfop tolerance. Callus tissue from these lines was evaluated in experiments as described above in the characterization of line 2167-9/2160-154 S-2.

[3] = system: cell line 2167-9/2160-154 H-1; assay: Callus herbicide tolerance, line H-1; format: cell-based, maize; details: cell line H-1
Description: as §1, §2

[4] = system: Heterozygous tolerant Inbred × H1 seedlings; assay: Foliar herbicide application, lethal rate; format: in vivo, maize (Zea mays L.); details: Heterozygous tolerant Inbred × H1, average of A188- and A619-derived F1 families
Description: (§3) Foliar applications of the herbicides were made to greenhouse- or field-grown seedlings at the three- to five-leaf stage. Herbicides were applied in a spray volume of 187 l/ha that includes 2.3 l/ha crop oil concentrate to enhance uptake. Sethoxydim and haloxyfop were applied using commercial formulations (Poast from BASF Corp and Verdict from Dow Elanco, respectively). Visual observations were recorded 14-21 days after herbicide treatments.
(§4) For each mutant, two homozygous tolerant R4 families were derived from two different regenerated plants and two heterozygous F1 families were obtained from crosses of R3 homozygous tolerant lines with the susceptible inbreds A188 and A619. Sethoxydim and haloxyfop each were applied at rates ranging from 0.0034 to 7.0 kg/ha. For each genotype a five-rate doubling series was used to determine herbicide lethality. Because of the large differences between wildtype and mutants in herbicide susceptibility, the ranges of herbicide application rates were varied. Two five plant/pot replicates of each family were evaluated for each rate. Herbicide injury symptoms were scored visually 21 days after herbicide treatment. The lethal rate was considered to be the lowest application rate resulting in death of all seedlings in the four replications of each homozygous tolerant genotype or in the eight replications of the heterozygous combinations.

[5] = system: Heterozygous tolerant Inbred × H2 seedlings; assay: Foliar herbicide application, lethal rate; format: in vivo, maize (Zea mays L.); details: Heterozygous tolerant Inbred × H2, average of A188- and A619-derived F1 families
Description: as §3, §4

[6] = system: Homozygous tolerant S3 seedlings; assay: Foliar herbicide application, lethal rate; format: in vivo, maize (Zea mays L.); details: for Lethal rates: Homozygous tolerant S3, average of two families, scored 21 days after treatment
Description: as §3, §4

Structure (SMILES) | % Inhibition of [14C]acetate incorporation into fatty acids ([1]; Haloxyfop 1 μM) | % Inhibition of [14C]pyruvate incorporation into fatty acids ([1]; Haloxyfop 1 μM) | Fold increase in herbicide concentration that results in a 50% reduction in growth vs unselected control cell line [2] | Fold increase in herbicide concentration that results in a 50% reduction in growth vs unselected control cell line ([2]; listed as haloxyfop) | Fold increase in herbicide concentration that results in a 50% reduction in growth vs unselected control cell line [3] | Fold increase in herbicide concentration that results in a 50% reduction in growth vs unselected control cell line ([3]; listed as haloxyfop) | Lethal rates [4] | Lethal rates [5] | Lethal rates [6] | % Inhibition of [14C]acetate incorporation into fatty acids ([1]; Sethoxydim 10 μM) | % Inhibition of [14C]pyruvate incorporation into fatty acids ([1]; Sethoxydim 10 μM) | Fold increase in herbicide concentration that results in a 50% reduction in growth vs unselected control cell line ([3]; listed as sethoxydim) | Fold increase over the lethal rate for wildtype plants ([6]; homozygous S3 seedlings, not killed at 7 kg/ha)
CC(Oc1ccc(Oc2ncc(C(F)(F)F)cc2Cl)cc1)C(=O)O (stereo not drawn) [Haloxyfop, 2-[4-[[3-chloro-5-(trifluoromethyl)-2-pyridinyl]oxy]phenoxy]-propanoic acid] | 89% | 99% | 4^1 fold | four-fold increase | 61 fold | ~60 fold | 0.11 kg/ha | 0.11 kg/ha | 0.22 kg/ha |  |  |  | 
CCCC(=NOCC)C1=C(O)CC(CC(C)SCC)CC1=O (stereo not drawn) [Sethoxydim, 2-[1-(ethoxyimino)-butyl]-5-[2-(ethylthio)propyl]-3-hydroxy-2-cyclohexen-1-one] |  |  | ~100 fold |  | 0 fold |  | 0.055 kg/ha | 0.22 kg/ha | >7.0 kg/ha | 90% | 98% | Neither haloxyfop selected line showed a significant degree of sethoxydim tolerance | ≥ 127 fold
